From patent US12582648B2 (BIOPROJET Pharma, priority 2020, dated 2026)

Experiments:
[1] = test system: monosynaptic spinal cord reflex; experiment: Monosynaptic response in the isolated spinal cord of rat pups (rat model of RLS); conditions: for inhibition of the monosynaptic reflex: reference agonists applied to isolated rat spinal cord
Experimental: RLS is believed to reflect an abnormal sensitivity of spinal stretch reflexes. These reflexes are modulated in an inhibitory fashion by dopamine released in the dorsal horn from a descending dopaminergic projection arising from A11 dopamine cells in the hypothalamus.
Electrophysiological responses i.e. motor action potentials recorded on the ventral root of isolated spinal cord from rat pups following stimulation of the dorsal root were analyzed.

[2] = test system: 160 other receptors, channels or enzymes; experiment: Activity at 160 other receptors, channels or enzymes
human D3 receptor = molecular target: T1, human D3 receptor (Homo sapiens, UniProt P35462); experiment: GTPγ35S binding assay at D3 dopamine receptor (CHO cell membranes); assay type: biochemical; conditions: GTPγ[35S] assay, dopamine as full agonist reference
T1 construct: expressed in transfected cells
Experimental: Thawed membranes from CHO cells stably expressing human D3 receptor were diluted at a final concentration of 5 μg/180 μL/well in a binding buffer containing HEPES 50 mM, MgCl2 3 mM, NaCl 140 mM, GDP 4 μM, pH=7.4 and distributed in 96 well polystyrene microplate. […] After transfer in a Millipore GF/C HTS® microplate, the filtration of the reactional mix followed by a three time 250 μl wash put an end to the reaction. The filter-bound radioactivity was measured in a liquid scintillation counter Microbeta with 70 μl of scintillation fluid.

[3] = molecular target: human dopamine D3 receptor (Homo sapiens, UniProt P35462); experiment: Mitogenesis assay of D3-receptor activation ([3H]-thymidine incorporation, CHO cells); assay type: cell-based; conditions: for agonist behaviour (partial / full): human D3 receptor
Experimental: Mitogenesis Assay of D3-Receptor Activation
Chinese hamster ovary (CHO) cells stably expressing the human dopamine D3 receptor were plated overnight in 96-well plates. Cells were then washed with serum-free medium, and incubated 20 h with various concentrations of ligands. Tritiated thymidine was added for a 4 hour-pulse. Then, the cells were detached with trypsin/EDTA, transferred in GF/C multiscreen microplates, rinsed with ice-cold PBS and ethanol and dried. [^3H]-Thymidine incorporation was measured by liquid scintillation in a MicroBeta counter.
Results are expressed as percentage of the maximal [^3H]-thymidine incorporation yielded with the full agonist quinelorane.

[4] = molecular target: T2, human dopamine D2 short isoform (Homo sapiens, UniProt P14416); experiment: Calcium fluxes assay of D2-receptor activation/inhibition (HEK293 cells); assay type: cell-based; conditions: calcium flux; for agonist behaviour at D2 receptor: BP1.4979 at concentrations up to 1,000 nM; for EC50: HEK293 cells, human D2 short isoform
T2 construct: expressed in transfected cells; host or cells: HEK293 cells
Experimental: Calcium Fluxes Assay of D2-Receptor Activation/Inhibition
HEK293 cells expressing the human dopamine D2 short isoform were used to evaluate the potential agonist property of test compounds. Cells were loaded with Fluo-4-AM solution supplemented with sulfinpyrazone then plated in a 96-well plate and introduced in a FLEX station for fluorescence measurement following calcium transients.
Responses were calculated as the maximum minus the minimum fluorescence counts (Fmax−Fmin).

healthy smokers = experiment: Weight gain during smoking cessation, double blind clinical trial; assay type: in vivo, human; conditions: for weight increase: after twelve weeks; for weight increase compared to the weight before treatment: twelve further weeks after the end of treatment
RLS patients = experiment: Double-blind placebo-controlled clinical trial in restless legs syndrome; assay type: in vivo, human; conditions: 15 mg twice a day for two weeks
Experimental: Clinical Studies: Efficacy of BP1.4979 in Restless Legs Syndrome (Randomized, Double Blind Parallel Groups Sequential, Placebo Controlled, Clinical Trial)
The double-blind trial was conducted on 29 patients.

human D2 receptor = human D2 receptor (Homo sapiens, UniProt P14416); experiment: Affinity at the human D2 receptor; assay type: binding
human D2 receptor, sequence (P14416 whole entry): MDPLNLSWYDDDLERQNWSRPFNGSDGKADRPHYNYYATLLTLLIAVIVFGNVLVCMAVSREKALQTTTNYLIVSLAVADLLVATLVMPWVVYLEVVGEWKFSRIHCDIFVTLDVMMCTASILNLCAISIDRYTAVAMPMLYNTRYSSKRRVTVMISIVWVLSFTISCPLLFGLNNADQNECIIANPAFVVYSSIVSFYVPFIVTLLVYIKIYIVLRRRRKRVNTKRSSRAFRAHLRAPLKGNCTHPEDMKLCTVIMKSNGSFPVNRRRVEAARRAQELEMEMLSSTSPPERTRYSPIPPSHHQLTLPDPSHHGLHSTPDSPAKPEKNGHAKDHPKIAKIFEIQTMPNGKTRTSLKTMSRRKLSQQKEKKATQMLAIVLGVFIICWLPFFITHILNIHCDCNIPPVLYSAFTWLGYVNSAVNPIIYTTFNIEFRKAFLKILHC

human dopamine D3 receptor, sequence (P35462 whole entry): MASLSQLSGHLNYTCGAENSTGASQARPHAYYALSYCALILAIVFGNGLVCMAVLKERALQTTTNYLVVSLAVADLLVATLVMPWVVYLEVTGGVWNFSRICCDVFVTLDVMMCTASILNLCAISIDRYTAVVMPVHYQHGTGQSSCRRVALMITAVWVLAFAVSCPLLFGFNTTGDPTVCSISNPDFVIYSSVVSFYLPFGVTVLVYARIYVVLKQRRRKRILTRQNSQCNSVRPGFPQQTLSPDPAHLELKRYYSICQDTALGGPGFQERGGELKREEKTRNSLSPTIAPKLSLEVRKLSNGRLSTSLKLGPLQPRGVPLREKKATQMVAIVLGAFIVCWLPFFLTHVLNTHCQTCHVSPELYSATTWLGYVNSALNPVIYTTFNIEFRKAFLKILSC
T2 sequence (P14416 1-414 isoform P14416-2): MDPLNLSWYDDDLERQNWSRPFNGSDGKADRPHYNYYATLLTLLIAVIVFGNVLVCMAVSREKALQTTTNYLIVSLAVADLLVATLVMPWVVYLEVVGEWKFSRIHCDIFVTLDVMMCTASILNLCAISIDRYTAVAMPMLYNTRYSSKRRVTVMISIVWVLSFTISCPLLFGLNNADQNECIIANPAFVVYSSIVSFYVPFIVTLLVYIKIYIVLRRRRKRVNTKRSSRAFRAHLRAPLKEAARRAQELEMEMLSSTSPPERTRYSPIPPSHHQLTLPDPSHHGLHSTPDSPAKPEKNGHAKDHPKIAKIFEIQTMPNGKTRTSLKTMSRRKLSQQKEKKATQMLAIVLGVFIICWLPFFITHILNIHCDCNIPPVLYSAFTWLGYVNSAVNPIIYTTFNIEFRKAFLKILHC
T1 sequence (P35462 whole entry): as the sequence (P35462 whole entry) above

CCCN(CCC)C1CCc2ccc(O)cc2C1 (stereo not shown) [7-OHDPAT, reference compound]
inhibition of the monosynaptic reflex [1]: total or nearly total inhibition

COCCC(=O)N[C@H]1CC[C@H](CCN2CCN(c3cccc(C#N)c3)CC2)CC1 [BP1.4979, N-(4-{2-[4-(3-Cyanophenyl)piperazin-1-yl]ethyl}cyclohexyl)-3-methoxypropanamide]
activity at 160 other receptors, channels or enzymes [2]: inactive | partial activity (human D3 receptor): < 5% | Emax ([3]; CHO, read-out: intrinsic activity): 30% | EC50 ([3]; mitogenesis, CHO cells expressing human D3 receptor): 0.7 nM | agonist behaviour (partial / full) ([3]; mitogenesis): partial agonist | blockade of the effect of dopamine or agonists ([4]; antagonist mode): block completely | agonist behaviour at D2 receptor [4]: failed to activate the receptor | inhibition of the synaptic transmission ([1]; 30 nM, stimulation 40 V, 50 μs of the dorsal root): inhibited fully | amplitude of the post-synaptic response on the ventral root ([1]; another series of experiments, supraliminar stimulation of the dorsal root): dose dependently inhibited | effect on post-synaptic response in the presence of the dopamine D3 antagonist BP1.4096 ([1]; in the presence of BP1.4096): prevented | weight increase (healthy smokers; 3 mg once a day): 0.9 kg | weight increase compared to the weight before treatment (healthy smokers; 3 mg once a day): 2.0 kg | weight increase (healthy smokers; 10 mg once a day): 0.5 kg | weight increase compared to the weight before treatment (healthy smokers; 10 mg once a day): 1.4 kg | weight increase (healthy smokers; 15 mg once a day): 0.0 kg | weight increase compared to the weight before treatment (healthy smokers; 15 mg once a day): 0.2 kg | nausea and vomiting side-effects (RLS patients): no patient reported any symptom related to nausea nor did had vomiting episodes | behaviour at the human D2 receptor (human D2 receptor): pure antagonist

NCCc1ccc(O)c(O)c1 [Dopamine, dopamine, reference compound]
inhibition of the monosynaptic reflex [1]: total or nearly total inhibition

CCCN(CCC)CCc1cccc2c1CC(=O)N2 [Ropinirole]
agonist behaviour (partial / full) ([3]; mitogenesis): full agonists | EC50 [4]: 20 nM | agonist behaviour at D2 receptor [4]: full agonists

CCCN(CCc1cccs1)[C@H]1CCc2c(O)cccc2C1 [Rotigotine]
EC50 [4]: 0.3 nM | agonist behaviour at D2 receptor [4]: full agonists
